Source: ChEMBL document CHEMBL1145498, “A systematic interaction map of validated kinase inhibitors with Ser/Thr kinases” (Proc Natl Acad Sci U S A, 2007)

What follows are compounds tested against T1, Serine/threonine-protein kinase VRK3 (Homo sapiens) (UniProt Q8IV63).
T1 sequence (whole entry): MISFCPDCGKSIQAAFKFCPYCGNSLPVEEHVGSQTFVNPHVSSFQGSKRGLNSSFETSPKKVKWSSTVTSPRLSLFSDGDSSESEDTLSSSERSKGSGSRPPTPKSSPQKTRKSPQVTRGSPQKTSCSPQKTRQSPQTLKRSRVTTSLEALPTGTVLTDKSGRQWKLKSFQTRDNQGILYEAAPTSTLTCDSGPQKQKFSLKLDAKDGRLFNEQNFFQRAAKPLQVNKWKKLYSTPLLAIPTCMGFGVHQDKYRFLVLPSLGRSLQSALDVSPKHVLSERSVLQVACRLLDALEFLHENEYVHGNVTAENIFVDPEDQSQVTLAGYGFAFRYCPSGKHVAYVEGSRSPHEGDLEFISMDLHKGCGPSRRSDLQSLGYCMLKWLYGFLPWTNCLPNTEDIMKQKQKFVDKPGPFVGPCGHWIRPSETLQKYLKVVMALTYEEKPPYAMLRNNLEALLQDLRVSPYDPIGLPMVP

SMILES	ΔTm [°C]
NCCNS(=O)(=O)c1cccc2c(Cl)cccc12	0.3
Cn1cnc2c(NCc3ccccc3)nc(NCCO)nc21 [OLOMOUCINE]	0.1
O=C1Nc2ccccc2/C1=C/c1cnc[nH]1	0.1

These compounds were tested against T2, Serine/threonine-protein kinase 17A (Homo sapiens) (UniProt Q9UEE5).
T2 sequence (whole entry): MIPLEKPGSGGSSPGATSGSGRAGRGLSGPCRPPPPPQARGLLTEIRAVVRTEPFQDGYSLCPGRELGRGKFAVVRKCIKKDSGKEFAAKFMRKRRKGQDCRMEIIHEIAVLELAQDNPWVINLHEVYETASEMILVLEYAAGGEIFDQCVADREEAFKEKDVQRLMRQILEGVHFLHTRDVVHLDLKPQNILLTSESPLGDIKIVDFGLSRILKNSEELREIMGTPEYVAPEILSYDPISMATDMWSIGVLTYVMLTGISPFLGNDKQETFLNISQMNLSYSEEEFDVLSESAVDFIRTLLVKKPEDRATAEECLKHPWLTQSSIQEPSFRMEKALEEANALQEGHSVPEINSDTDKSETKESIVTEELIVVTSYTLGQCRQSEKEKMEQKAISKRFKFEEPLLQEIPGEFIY

SMILES	ΔTm [°C]
NCCNS(=O)(=O)c1cccc2c(Cl)cccc12	1
Cn1cnc2c(NCc3ccccc3)nc(NCCO)nc21 [OLOMOUCINE]	-0.1
O=C1Nc2ccccc2/C1=C/c1cnc[nH]1	9

What follows are compounds tested against Serine/threonine-protein kinase 26 (Homo sapiens) (UniProt Q9P289).
Sequence of Serine/threonine-protein kinase 26 (Homo sapiens) (Q9P289 2-416 limits assumed): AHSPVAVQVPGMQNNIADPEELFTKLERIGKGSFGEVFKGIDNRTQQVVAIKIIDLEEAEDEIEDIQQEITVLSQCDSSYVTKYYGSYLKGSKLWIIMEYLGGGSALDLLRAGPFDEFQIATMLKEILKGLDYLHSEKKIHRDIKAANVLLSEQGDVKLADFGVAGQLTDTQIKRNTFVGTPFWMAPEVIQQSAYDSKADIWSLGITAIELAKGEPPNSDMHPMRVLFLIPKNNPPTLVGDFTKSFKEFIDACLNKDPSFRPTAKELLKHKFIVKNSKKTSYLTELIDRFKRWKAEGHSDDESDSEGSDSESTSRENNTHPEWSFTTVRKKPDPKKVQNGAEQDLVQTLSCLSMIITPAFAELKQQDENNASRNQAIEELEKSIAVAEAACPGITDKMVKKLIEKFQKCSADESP

SMILES	ΔTm [°C]
NCCNS(=O)(=O)c1cccc2c(Cl)cccc12	0
Cn1cnc2c(NCc3ccccc3)nc(NCCO)nc21 [OLOMOUCINE]	0.2
O=C1Nc2ccccc2/C1=C/c1cnc[nH]1	4.3

Each compound was assayed against Serine/threonine-protein kinase PAK 6 (Homo sapiens) (UniProt Q9NQU5).
Sequence of Serine/threonine-protein kinase PAK 6 (Homo sapiens) (Q9NQU5 whole entry, looked up): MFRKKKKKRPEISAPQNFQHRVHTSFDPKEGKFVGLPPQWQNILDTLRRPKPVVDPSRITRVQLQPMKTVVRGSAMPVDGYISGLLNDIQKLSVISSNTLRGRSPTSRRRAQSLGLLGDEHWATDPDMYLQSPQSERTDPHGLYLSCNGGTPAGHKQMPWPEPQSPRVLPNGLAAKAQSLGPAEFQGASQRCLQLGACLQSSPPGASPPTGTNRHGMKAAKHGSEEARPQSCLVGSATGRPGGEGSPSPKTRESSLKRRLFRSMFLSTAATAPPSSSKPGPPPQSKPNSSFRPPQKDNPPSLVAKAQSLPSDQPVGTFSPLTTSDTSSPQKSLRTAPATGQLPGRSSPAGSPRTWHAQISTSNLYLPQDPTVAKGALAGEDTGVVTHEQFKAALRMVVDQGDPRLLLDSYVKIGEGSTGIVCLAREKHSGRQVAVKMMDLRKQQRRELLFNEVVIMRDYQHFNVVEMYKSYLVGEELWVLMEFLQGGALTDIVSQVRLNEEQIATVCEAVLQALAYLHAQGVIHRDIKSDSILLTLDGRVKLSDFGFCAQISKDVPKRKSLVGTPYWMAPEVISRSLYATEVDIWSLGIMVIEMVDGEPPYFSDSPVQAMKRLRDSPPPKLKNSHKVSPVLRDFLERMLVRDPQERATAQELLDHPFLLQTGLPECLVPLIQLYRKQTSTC

SMILES	ΔTm [°C]
NCCNS(=O)(=O)c1cccc2c(Cl)cccc12	0.2
Cn1cnc2c(NCc3ccccc3)nc(NCCO)nc21 [OLOMOUCINE]	-0.5
O=C1Nc2ccccc2/C1=C/c1cnc[nH]1	1.9

What follows are compounds tested against cAMP-dependent protein kinase catalytic subunit alpha (Homo sapiens) (UniProt P17612).

SMILES	ΔTm [°C]
NCCNS(=O)(=O)c1cccc2c(Cl)cccc12	2.5
Cn1cnc2c(NCc3ccccc3)nc(NCCO)nc21 [OLOMOUCINE]	-0.1
O=C1Nc2ccccc2/C1=C/c1cnc[nH]1	1.6

What follows are compounds tested against 5'-AMP-activated protein kinase catalytic subunit alpha-2 (Homo sapiens) (UniProt P54646).
Sequence of 5'-AMP-activated protein kinase catalytic subunit alpha-2 (Homo sapiens) (P54646 whole entry, looked up): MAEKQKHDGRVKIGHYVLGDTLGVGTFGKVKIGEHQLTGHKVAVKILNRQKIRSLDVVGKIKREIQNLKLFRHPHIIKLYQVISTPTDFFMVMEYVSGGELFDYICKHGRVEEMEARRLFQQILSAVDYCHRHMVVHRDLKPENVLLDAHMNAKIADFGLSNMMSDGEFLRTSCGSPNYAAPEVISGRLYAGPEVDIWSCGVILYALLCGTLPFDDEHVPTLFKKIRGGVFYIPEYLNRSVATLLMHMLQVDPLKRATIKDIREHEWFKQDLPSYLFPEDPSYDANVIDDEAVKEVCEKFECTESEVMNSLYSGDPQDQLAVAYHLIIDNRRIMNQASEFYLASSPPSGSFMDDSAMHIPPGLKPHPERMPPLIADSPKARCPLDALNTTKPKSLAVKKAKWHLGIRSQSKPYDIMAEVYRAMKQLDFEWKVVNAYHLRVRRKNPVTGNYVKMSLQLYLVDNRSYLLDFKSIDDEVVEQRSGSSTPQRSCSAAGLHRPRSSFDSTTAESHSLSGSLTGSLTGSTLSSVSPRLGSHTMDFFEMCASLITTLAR

SMILES	ΔTm [°C]
NCCNS(=O)(=O)c1cccc2c(Cl)cccc12	-0.2
Cn1cnc2c(NCc3ccccc3)nc(NCCO)nc21 [OLOMOUCINE]	0.2
O=C1Nc2ccccc2/C1=C/c1cnc[nH]1	3.3

What follows are compounds tested against T3, Mitogen-activated protein kinase kinase kinase 5 (Homo sapiens) (UniProt Q99683).
T3 sequence (whole entry): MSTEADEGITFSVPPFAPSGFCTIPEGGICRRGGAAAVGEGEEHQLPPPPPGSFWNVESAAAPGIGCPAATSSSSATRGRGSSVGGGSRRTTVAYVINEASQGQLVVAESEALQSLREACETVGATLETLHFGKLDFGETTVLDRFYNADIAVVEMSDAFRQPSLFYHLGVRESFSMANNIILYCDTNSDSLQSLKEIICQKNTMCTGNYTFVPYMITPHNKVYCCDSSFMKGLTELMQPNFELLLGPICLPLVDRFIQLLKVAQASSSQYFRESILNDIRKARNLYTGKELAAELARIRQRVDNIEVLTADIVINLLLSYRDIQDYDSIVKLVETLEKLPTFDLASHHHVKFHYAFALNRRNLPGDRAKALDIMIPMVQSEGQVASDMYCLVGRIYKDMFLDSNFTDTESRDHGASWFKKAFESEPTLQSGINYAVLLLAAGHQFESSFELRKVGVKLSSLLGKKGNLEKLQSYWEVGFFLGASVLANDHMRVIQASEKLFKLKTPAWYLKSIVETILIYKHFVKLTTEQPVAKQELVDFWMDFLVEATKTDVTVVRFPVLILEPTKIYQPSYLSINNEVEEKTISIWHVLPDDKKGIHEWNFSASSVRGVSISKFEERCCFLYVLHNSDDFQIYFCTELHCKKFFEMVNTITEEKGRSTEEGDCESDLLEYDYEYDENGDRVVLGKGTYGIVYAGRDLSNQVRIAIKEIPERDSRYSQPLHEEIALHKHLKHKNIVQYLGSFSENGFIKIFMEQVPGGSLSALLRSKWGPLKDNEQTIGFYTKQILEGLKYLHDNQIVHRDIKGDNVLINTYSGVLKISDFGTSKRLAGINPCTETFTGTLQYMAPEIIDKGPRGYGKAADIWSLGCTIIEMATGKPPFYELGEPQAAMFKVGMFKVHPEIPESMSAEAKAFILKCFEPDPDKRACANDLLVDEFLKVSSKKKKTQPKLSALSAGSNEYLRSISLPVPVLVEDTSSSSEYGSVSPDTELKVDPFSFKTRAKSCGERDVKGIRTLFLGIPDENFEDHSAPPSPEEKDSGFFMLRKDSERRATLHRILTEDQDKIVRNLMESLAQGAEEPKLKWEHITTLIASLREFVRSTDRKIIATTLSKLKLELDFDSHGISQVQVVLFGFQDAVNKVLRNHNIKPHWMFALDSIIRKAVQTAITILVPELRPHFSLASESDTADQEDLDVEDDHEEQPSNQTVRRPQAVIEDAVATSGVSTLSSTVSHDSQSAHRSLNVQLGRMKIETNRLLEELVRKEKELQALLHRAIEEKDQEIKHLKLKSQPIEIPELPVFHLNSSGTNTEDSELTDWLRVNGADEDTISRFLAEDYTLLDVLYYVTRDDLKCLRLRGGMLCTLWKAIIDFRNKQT

SMILES	ΔTm [°C]
NCCNS(=O)(=O)c1cccc2c(Cl)cccc12	0.4
Cn1cnc2c(NCc3ccccc3)nc(NCCO)nc21 [OLOMOUCINE]	0.1
O=C1Nc2ccccc2/C1=C/c1cnc[nH]1	5

What follows are compounds tested against Serine/threonine-protein kinase Nek6 (Homo sapiens) (UniProt Q9HC98).
Sequence of Serine/threonine-protein kinase Nek6 (Homo sapiens) (Q9HC98 whole entry): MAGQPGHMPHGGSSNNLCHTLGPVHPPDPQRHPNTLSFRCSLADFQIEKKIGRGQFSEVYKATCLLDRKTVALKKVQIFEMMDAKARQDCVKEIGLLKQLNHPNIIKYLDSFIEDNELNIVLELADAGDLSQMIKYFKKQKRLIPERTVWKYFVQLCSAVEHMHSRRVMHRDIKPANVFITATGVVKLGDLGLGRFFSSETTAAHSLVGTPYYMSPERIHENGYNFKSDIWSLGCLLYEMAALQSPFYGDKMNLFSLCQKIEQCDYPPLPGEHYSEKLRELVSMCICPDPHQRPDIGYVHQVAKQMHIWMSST

SMILES	ΔTm [°C]
NCCNS(=O)(=O)c1cccc2c(Cl)cccc12	-0.4
Cn1cnc2c(NCc3ccccc3)nc(NCCO)nc21 [OLOMOUCINE]	0
O=C1Nc2ccccc2/C1=C/c1cnc[nH]1	0

These compounds were tested against Serine/threonine-protein kinase pim-2 (Homo sapiens, UniProt Q9P1W9).
Sequence of Serine/threonine-protein kinase pim-2 (Q9P1W9 whole entry, looked up): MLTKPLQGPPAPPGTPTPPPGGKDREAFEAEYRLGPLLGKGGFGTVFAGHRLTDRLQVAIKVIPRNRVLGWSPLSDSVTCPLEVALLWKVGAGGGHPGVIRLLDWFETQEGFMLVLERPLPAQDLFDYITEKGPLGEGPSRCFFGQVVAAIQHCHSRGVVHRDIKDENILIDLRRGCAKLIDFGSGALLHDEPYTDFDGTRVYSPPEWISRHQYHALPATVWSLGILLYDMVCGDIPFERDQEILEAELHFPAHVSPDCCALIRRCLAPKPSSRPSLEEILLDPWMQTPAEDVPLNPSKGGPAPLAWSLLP

SMILES	ΔTm [°C]
NCCNS(=O)(=O)c1cccc2c(Cl)cccc12	1.7
Cn1cnc2c(NCc3ccccc3)nc(NCCO)nc21 [OLOMOUCINE]	0.1
O=C1Nc2ccccc2/C1=C/c1cnc[nH]1	1.9

What follows are compounds tested against Casein kinase I isoform gamma-3 (Homo sapiens) (UniProt Q9Y6M4).
Sequence of Casein kinase I isoform gamma-3 (Homo sapiens) (Q9Y6M4 whole entry, looked up, canonical isoform): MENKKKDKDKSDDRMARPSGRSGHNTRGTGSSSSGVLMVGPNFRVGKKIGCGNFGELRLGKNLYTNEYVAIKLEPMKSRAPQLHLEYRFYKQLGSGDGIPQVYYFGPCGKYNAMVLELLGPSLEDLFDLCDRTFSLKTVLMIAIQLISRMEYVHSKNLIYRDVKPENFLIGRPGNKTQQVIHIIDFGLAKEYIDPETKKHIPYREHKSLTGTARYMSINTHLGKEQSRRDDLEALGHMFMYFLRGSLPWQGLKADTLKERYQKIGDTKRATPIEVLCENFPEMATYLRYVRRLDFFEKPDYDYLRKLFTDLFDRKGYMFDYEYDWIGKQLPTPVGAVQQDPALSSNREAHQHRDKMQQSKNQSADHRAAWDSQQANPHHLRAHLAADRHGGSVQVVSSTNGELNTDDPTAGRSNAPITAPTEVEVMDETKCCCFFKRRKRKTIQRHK

SMILES	ΔTm [°C]
NCCNS(=O)(=O)c1cccc2c(Cl)cccc12	0.4
Cn1cnc2c(NCc3ccccc3)nc(NCCO)nc21 [OLOMOUCINE]	0
O=C1Nc2ccccc2/C1=C/c1cnc[nH]1	1.5

What follows are compounds tested against Serine/threonine-protein kinase 10 (Homo sapiens) (UniProt O94804).

SMILES	ΔTm [°C]
NCCNS(=O)(=O)c1cccc2c(Cl)cccc12	0.8
Cn1cnc2c(NCc3ccccc3)nc(NCCO)nc21 [OLOMOUCINE]	0.5
O=C1Nc2ccccc2/C1=C/c1cnc[nH]1	4.2

The compounds below were run against Cyclin-dependent kinase 16 (Homo sapiens) (UniProt Q00536).
Sequence of Cyclin-dependent kinase 16 (Homo sapiens) (Q00536 whole entry): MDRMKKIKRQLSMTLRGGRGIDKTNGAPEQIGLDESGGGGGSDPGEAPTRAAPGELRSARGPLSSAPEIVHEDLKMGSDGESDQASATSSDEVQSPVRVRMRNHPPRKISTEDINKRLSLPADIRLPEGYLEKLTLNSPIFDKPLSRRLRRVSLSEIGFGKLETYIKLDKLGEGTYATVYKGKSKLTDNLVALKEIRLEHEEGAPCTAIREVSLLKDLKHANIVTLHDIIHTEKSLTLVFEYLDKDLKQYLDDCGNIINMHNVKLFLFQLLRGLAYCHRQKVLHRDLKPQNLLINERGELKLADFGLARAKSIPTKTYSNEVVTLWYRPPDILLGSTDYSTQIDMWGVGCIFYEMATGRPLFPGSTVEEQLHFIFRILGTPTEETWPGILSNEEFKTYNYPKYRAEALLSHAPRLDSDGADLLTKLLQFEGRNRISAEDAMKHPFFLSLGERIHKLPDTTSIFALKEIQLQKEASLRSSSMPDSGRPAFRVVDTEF

SMILES	ΔTm [°C]
NCCNS(=O)(=O)c1cccc2c(Cl)cccc12	-0.1
Cn1cnc2c(NCc3ccccc3)nc(NCCO)nc21 [OLOMOUCINE]	-0.6
O=C1Nc2ccccc2/C1=C/c1cnc[nH]1	4.7

These compounds were tested against Tyrosine-protein kinase JAK1 (Homo sapiens) (UniProt P23458).
Sequence of Tyrosine-protein kinase JAK1 (Homo sapiens) (P23458 whole entry): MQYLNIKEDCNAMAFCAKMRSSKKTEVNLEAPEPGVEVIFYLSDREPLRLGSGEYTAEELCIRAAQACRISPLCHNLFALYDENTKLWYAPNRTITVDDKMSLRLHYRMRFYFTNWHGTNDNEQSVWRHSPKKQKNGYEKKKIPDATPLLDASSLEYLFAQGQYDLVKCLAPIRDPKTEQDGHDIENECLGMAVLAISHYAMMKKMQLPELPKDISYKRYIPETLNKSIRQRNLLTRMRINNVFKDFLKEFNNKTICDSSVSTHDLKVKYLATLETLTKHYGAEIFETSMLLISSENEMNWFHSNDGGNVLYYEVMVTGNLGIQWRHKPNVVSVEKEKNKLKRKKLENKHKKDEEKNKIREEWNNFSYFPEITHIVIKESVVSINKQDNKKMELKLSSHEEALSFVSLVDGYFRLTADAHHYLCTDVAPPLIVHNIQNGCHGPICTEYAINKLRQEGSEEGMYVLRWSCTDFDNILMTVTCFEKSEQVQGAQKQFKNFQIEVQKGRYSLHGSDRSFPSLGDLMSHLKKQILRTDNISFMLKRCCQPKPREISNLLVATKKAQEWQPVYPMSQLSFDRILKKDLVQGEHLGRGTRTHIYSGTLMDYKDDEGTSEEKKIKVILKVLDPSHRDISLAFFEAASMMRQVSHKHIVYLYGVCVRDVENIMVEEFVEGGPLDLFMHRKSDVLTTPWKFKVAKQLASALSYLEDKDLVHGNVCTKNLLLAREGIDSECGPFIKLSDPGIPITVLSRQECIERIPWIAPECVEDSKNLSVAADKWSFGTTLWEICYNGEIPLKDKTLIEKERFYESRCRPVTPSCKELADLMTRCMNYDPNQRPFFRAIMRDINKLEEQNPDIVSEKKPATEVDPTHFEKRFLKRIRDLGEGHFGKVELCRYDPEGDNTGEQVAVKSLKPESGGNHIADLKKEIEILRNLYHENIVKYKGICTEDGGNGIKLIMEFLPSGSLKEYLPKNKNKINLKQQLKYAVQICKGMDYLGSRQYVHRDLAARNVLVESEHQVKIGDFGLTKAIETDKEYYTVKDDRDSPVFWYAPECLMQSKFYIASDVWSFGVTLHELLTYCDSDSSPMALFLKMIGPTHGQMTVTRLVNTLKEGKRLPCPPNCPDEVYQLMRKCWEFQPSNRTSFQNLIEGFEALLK

SMILES	ΔTm [°C]
NCCNS(=O)(=O)c1cccc2c(Cl)cccc12	0.2
Cn1cnc2c(NCc3ccccc3)nc(NCCO)nc21 [OLOMOUCINE]	0
O=C1Nc2ccccc2/C1=C/c1cnc[nH]1	6.9

These compounds were tested against Calcium/calmodulin-dependent protein kinase kinase 2 (Homo sapiens, UniProt Q96RR4).

SMILES	ΔTm [°C]
NCCNS(=O)(=O)c1cccc2c(Cl)cccc12	0.3
Cn1cnc2c(NCc3ccccc3)nc(NCCO)nc21 [OLOMOUCINE]	-0.2
O=C1Nc2ccccc2/C1=C/c1cnc[nH]1	3.1

These compounds were tested against Serine/threonine-protein kinase 38 (Homo sapiens) (UniProt Q15208).
Sequence of Serine/threonine-protein kinase 38 (Homo sapiens) (Q15208 2-465 limits assumed): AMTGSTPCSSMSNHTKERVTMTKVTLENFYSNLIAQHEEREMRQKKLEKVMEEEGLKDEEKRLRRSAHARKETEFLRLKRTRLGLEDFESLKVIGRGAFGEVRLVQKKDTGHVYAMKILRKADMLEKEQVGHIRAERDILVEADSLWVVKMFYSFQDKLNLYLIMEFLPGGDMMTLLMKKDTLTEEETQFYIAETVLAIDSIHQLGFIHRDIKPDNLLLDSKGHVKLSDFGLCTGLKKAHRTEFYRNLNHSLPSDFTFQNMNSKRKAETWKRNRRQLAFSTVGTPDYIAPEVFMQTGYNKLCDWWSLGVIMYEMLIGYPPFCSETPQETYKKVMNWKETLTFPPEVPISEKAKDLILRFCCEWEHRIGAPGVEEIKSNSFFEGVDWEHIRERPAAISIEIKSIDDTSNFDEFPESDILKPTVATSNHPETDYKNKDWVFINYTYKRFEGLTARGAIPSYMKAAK

SMILES	ΔTm [°C]
NCCNS(=O)(=O)c1cccc2c(Cl)cccc12	-0.1
Cn1cnc2c(NCc3ccccc3)nc(NCCO)nc21 [OLOMOUCINE]	0
O=C1Nc2ccccc2/C1=C/c1cnc[nH]1	2.9
